Series [1] addresses T1, GAK (Homo sapiens, UniProt O14976).
T1 sequence (O14976 1-1311): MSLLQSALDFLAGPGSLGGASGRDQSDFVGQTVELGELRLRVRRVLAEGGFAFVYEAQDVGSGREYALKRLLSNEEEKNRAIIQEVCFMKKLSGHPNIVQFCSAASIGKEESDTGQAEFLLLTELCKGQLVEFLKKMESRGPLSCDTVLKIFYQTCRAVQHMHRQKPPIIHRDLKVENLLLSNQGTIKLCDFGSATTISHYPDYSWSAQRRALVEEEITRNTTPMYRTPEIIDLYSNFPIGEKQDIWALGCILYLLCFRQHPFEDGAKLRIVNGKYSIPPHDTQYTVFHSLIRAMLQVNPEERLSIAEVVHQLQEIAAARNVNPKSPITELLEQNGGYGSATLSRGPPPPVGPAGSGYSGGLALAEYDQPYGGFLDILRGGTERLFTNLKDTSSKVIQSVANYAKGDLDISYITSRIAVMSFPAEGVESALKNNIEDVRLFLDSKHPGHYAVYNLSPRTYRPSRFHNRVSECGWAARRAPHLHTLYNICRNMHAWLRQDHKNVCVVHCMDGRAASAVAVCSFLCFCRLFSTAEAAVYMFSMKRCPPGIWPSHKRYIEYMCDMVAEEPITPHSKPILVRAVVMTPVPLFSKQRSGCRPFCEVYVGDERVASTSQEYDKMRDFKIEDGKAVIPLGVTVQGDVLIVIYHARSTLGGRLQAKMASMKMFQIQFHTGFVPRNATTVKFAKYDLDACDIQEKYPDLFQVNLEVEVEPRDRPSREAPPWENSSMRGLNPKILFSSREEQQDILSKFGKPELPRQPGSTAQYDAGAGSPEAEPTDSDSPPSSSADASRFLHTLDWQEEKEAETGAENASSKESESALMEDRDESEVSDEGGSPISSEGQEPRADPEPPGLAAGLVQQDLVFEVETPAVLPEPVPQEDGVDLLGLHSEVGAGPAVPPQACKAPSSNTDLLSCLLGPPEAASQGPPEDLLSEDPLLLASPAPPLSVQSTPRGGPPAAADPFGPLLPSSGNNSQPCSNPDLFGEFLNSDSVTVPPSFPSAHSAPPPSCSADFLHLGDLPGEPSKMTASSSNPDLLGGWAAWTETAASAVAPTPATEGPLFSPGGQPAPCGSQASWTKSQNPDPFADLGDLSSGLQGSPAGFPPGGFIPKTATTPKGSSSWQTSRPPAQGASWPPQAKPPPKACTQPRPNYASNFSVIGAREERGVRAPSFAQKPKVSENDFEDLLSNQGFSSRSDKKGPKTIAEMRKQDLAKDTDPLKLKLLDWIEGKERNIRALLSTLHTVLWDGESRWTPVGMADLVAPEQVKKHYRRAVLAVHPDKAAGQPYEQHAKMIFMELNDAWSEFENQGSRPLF
Conditions: nanoBRET; read-out: Live Cell GAK IC50; cited from earlier work. (In general: In BRET a luciferase serves as donor, and the signal depends on an acceptor being close.)

Series [2] in a line: pharmacokinetic profiling in mice, oral dosing. In kind it is in vivo. Conditions: C57BL/6 mice, 10 mg/kg po. Here is the method:
Pharmacokinetic profiling was performed by SAI Life Sciences (Hyderabad, India). […] Prior approval of the Institutional Animal Ethics Committee (IAEC) was obtained before initiation of the study. Healthy male C57BL/6 mice (8–12 weeks old) weighing between 20 and 35 g were procured from (Envigo Research Private Ltd., City, Hyderabad, India). Three mice were housed in each cage. […] Temperature and humidity were recorded by an automatically controlled data logger system. All animals were provided a laboratory rodent diet (Envigo Research Private Ltd., Hyderabad, India). Reverse osmosis water treated with ultraviolet light was provided ad libitum. Eighteen male mice were weighed and divided in to two groups (Group 1 and Group 2), with nine mice in each group. […] The dosing volume administered was 10 mL/kg for the oral route. […] Plasma samples were separated by centrifugation at 4000 rpm for 10 min and stored below −70 °C until bioanalysis. […] The plasma concentration-time data were then used for the pharmacokinetic analysis. A non-compartmental analysis module in Phoenix WinNonlin (Version 6.3, Certara USA Inc., Raleigh, NC, USA) was used to assess the pharmacokinetic parameters. Maximum concentration (Cmax) and time to reach the maximum concentration (Tmax) were the observed values. The areas under the concentration time curve (AUClast and AUCinf) were calculated by linear trapezoidal rule.

A short description of series [3]: metabolite identification in mouse liver microsomes. Here is the method:
After centrifugation, the supernatant was subjected to analysis by LCMS, and structures of metabolites were assigned on the basis of their molecular weight and fragmentation pattern.
Compounds were incubated at a concentration of 10 µM with mouse liver microsomes in the presence of an excess of NADPH.
1.1. General Numbering of Metabolites
The metabolites are numbered according to their retention times in the gradient LC-MS analysis in positive […]
ion mode. […] The M number increases […]
consecutively for metabolites with increasing retention time.
To avoid confusion, labelled retention times of a metabolite peak in different injections are the same, which may lead to mismatch between labelled retention time and actual retention time.
General Strategy for Metabolite Identification
The vehicle control and study samples were injected into LC-MS with gradient elution using a Q1 scan method. Searching for potential metabolites was then performed using LightSight software (Applied Biosystems/MDS Sciex) by comparing a total ion current chromatogram of Q1 scan from a study sample with a chromatogram from the corresponding vehicle control sample. The study sample was then injected again to obtain the product ion spectra of potential metabolites using product ion scan methods. The fragmentation patterns of the potential metabolites were then compared to the fragmentation of the parent compound to elucidate the structures of the metabolites.
The assignment of fragments is shown
2.2. Identification of Metabolites in Mouse Liver Microsomal Incubation

For series [4], the target named is T1, GAK. Nature of the series: live cell NanoBRET target engagement assay. In kind it is cell-based. Conditions: nanoBRET; mean average, n = 2.
The next series concerns the target STK16 (Homo sapiens, UniProt O75716). The series can be described thus: KINOMEscan. The series is classed as binding. The arrangement: purchased Eurofins DiscoverX (KINOMEscan). Conditions: 35 at 1 µM; read-out: % inhibition. The protocol: (§1) KinomeScan Assay on 35 was performed as previously described at EuroFins DiscoverX (Fremont, CA, USA).
In series [5] the target is T1, GAK. The series can be described thus: KINOMEscan. In kind it is binding. The arrangement: purchased Eurofins DiscoverX (KINOMEscan). Here is the method:
as §1

In the next series the test system is FLT3(ITD). The series can be described thus: KINOMEscan. The following applies: 35 at 1 µM; read-out: % inhibition. In kind it is binding, human. Here is the method: as §1
The next series relates to FLT3(ITD,D835V). Nature of the series: KINOMEscan. The following applies: 35 at 1 µM; read-out: % inhibition. In kind it is binding, human. The protocol: as §1
Another series concerns EGFR(L747-T751del,Sins). Nature of the series: KINOMEscan. In kind it is binding, human. The following applies: 35 at 1 µM; read-out: % inhibition. Here is the method:
as §1

[6] abbreviates: male, C57BL/6, mouse, plasma, po, 10 mg/kg, 2 h pretreat 50 mpk ABT.
[7] abbreviates: male, C57BL/6, mouse, plasma, po, 10 mg/kg, without ABT.

Like-named read-outs stand apart in the source and are kept apart here.

STK16, sequence (O75716 whole entry): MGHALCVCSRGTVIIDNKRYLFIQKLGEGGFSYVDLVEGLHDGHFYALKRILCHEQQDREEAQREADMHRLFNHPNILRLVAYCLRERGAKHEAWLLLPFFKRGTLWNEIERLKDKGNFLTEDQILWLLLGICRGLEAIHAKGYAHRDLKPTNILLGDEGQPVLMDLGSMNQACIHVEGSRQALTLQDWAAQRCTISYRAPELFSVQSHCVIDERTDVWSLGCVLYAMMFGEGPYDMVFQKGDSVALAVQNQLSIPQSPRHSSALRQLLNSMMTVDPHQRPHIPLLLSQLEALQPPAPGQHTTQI

What is called IC50 is the point on the concentration scale where inhibition reaches its midpoint. The AUC(0-inf) is the area under the concentration-time curve extrapolated to infinity. What is called Tmax is the time at which the peak concentration occurs. What is called Cmax is the maximum level reached in the sampled fluid or tissue. On to `COc1cc2nccc(Nc3cc(OC)c(OC)c(OC)c3)c2cc1OC` [Compound 8], for which the half-inhibitory concentration (IC50) on GAK [1] is 25 nM. In series [2] (2 h pre-treatment with 50 mg/kg ABT vs without), the “fold higher exposure with ABT pretreatment” value came to 8 fold. The “time plasma concentration sustained at 2-fold above the cellular IC50” value in [2] (pretreatment with ABT) is on record as more than 8 h. For the same compound, in [2] (setting [6]), the total exposure AUC(0-inf) was 569 ng·h/mL and the Tmax was determined as 2 h. In series [2] (male, C57BL/6, mouse, plasma, po, 10 mg/kg, 2 h pretreat 50 mpk ABT, read-out: Cmax), the Cmax came out at 107 ng/mL. Moreover, in series [2] (setting [7]), the AUC(0-inf) was found to be 71 ng·h/mL and the Tmax came out at 1 h. In series [2] (male, mouse, plasma, without ABT, read-out: T1/2 in mice), the half-life is less than 60 min. The “Primary Metabolism Site” value in series [3] was “Aniline”.
With `Brc1ccc2nccc(Nc3ccc4cn[nH]c4c3)c2c1` [Compound 35, 6-Bromo-N-(1H-indazol-6-yl)quinolin-4-amine], the IC50 at GAK [4] came to 1400 nM. In addition, the activity at 1 µM at STK16 came out at 98%; on GAK [5] (35 at 1 µM, read-out: % inhibition), 10%. Also, the inhibition at 1 µM on GAK [5] (KinomeScan, screened at 1 μM, read-out: kinases inhibited at 1 μM: GAK) amounted to 90%. For the same compound, the activity in the series on FLT3(ITD) was 97%; with FLT3(ITD,D835V), 100%; in the series on EGFR(L747-T751del,Sins), 100%.

These data come from article PMC6891286, “Towards the Development of an In vivo Chemical Probe for Cyclin G Associated Kinase (GAK)” (Molecules, 2019).
